Reference: patent US20260091141A1, “GENE EDITING METHODS, SYSTEMS, AND COMPOSITIONS FOR TREATING SPINAL MUSCULAR ATROPHY” (The Broad Institute, Inc., priority 2023, published 2026)

How the values were obtained:
[1] = system: SMN2 mRNA; assay: RT-qPCR of SMN2 mRNA abundance in Δ7SMA mESCs; type: cell-based, mouse
Experimental: To investigate how exon 8 SA disruption affects SMN2 transcripts, reverse transcription quantitative PCR (RT-qPCR) was performed to measure the abundance of SMN2 mRNA in treated and control Δ7SMA mESCs. The terminal sequence of SMN2, including intron 7 and the 3′ untranslated region (UTR) of exon 8, encode negative regulators of gene expression and mRNA transcript stability^21,71,72. Alternative splicing at the terminus of SMN2 therefore may result in increased SMN protein levels. […]
To investigate whether risdiplam and nusinersen treatment of Δ7SMA mESCs affect SMN2 transcript abundance, RT-qPCR was performed, and SMN2 mRNA levels were quantified in treated and genome edited cells (FIG. 7G). […] In contrast, a 1.8-fold reduction of SMN2 mRNA was detected 48 hours after nusinersen treatment relative to untreated Δ7SMA mESCs (Welch's two-tailed t-test p<0.005) that explains the relative reduction in SMN protein levels compared to the base editing approach (FIG. 2G).
(§1) mRNA was isolated from […] mESCs with the RNeasy mini kit (Qiagen), and reverse transcription was performed using SuperScript IV (ThermoFisher) according to the manufacturer's protocols. For targeted SMN2 qPCR and splice product quantitation by automated electrophoresis, reverse transcription was performed with random hexamers. […]

[2] = system: SMN protein; assay: SMN protein levels in Δ7SMA mESCs by Western blot, normalized to histone H3; type: cell-based, mouse
Description: Precise deletions are defined as those that remove ≥4 nt of ISS-N1 including ≥4 nt of the 3′-hnRNP A1/A2 domain. […] Precise deletions are defined as those that enable the addition of five or more C-terminal amino acids to SMNΔ7 (SMNΔ7mod) to restore protein stability. […] The observed fraction of precise deletions, splice acceptor (SA) deletions, and other indels are shown. […] FIG. 1I provides stacked bar charts showing SMN2 splice variants following editing with C-nuc and C-CBE, as measured by high-throughput sequencing of mRNA transcripts amplified with exon 6 and polyA-primers. Splicing activity of exon 7 spliced and unspliced sub-fractions is shown. Asterisks indicate *≤0.05. **≤0.01, and ***≤0.005.
(§2) Risdiplam doses of 1.0, 0.5, 0.25, or 0.1 μM were used (shown from left to right in the graph). […] The asterisk indicates p<0.05 by Welch's two-tailed t-test. […] UG=unrelated guide; NT=no treatment.
(§3) UG-unrelated guide; NT=no treatment.

[3] = system: SMN protein; assay: Western blot of SMN protein in Δ7SMA mESCs; type: cell-based, mouse; details: normalized to histone H3
Experimental: Cells harvested for western blot were washed with ice-cold PBS and incubated at 4° C. for 30 min while rocking in RIPA lysis buffer (ThermoFisher) supplemented with 1 mM PMSF (ThermoFisher) and complete EDTA-free protease inhibitor cocktail (Roche). Lysates were clarified by centrifugation at 12,000 rpm at 4° C. for 20 min. Lysates were normalized using BCA (Pierce BCA Protein Assay Kit) and combined with 4× Laemelli buffer (BioRad) and DTT (ThermoFisher) at a final concentration of 1 mM. 10 μg of reduced protein were loaded per gel lane, and transfer was performed with an iBlot 2 dry blotting system (ThermoFisher) using the following program: 20V for 1 min, then 23 V for 4 min, then 25 V for 2 min, for a total transfer time of 7 minutes. Blocking was performed at room temperature for 60 minutes with block buffer: 1% BSA in TBST (150 mM NaCl, 0.5% Tween-20, 50 mM Tris-Cl, pH 7.5).
Membranes were then incubated in primary antibody diluted in block buffer for 2 hours at room temperature. After a washing, secondary antibodies diluted in TBST were added and incubated for 1 hour at room temperature. Membranes were washed again and imaged using a LI-COR Odyssey. Wash steps were 3×5-minute washes in TBST. […]

[4] = system: Δ7SMA mice; assay: Electrophysiological measurements (CMAP, MUNE) in Δ7SMA mice; type: in vivo, mouse; details: PND12, 2.5×10^13 vg/kg Zolgensma, 0.1 mg/kg risdiplam IP daily
Experimental: Compound muscle action potential (CMAP) amplitude and motor unit number estimation (MUNE) from the gastrocnemius muscle of treated animals was performed to assess loss of motor neuron functional integrity, a key feature of SMA and preclinical SMA models^131. […] MUNE were reduced by 50% in untreated Δ7SMA animals compared to heterozygous mice. […] In contrast, little or no improvement in MUNE was observed following Zolgensma or 0.1 mg/kg risdiplam administration (50% and 75% relative to heterozygotes respectively, Kruskal-Wallis test p>0.6). […] Thus, neonatal ICV injection of AAV9-ABE measurably rescues SMA pathophysiology of spinal motor neurons.
Compound muscle action potential (CMAP) and motor unit number estimate (MUNE) measurements were performed as previously described^178. Briefly, at PND12 the right sciatic nerve was stimulated with a pair of insulated 28-gauge monopolar needles (Teca, Oxford Instruments Medical, NY) placed in proximity to the sciatic nerve in the proximal hind limb.
Recording electrodes consisted of a pair of fine ring wire electrodes (Alpine Biomed, Skovlunde, Denmark). […]
For MUNE, an incremental stimulus technique similar to a previously described procedure was used^178. […] The peak-to-peak amplitude of each individual incremental response was calculated by subtracting the amplitude of the prior response. […]

[5] = system: SMN2 exon 7 splicing; assay: SMN2 exon 7 splicing by RT-PCR (exons 6 to 8) and automated electrophoresis in Δ7SMA mESCs; type: cell-based, mouse
Experimental: To assess whether nuclease-mediated editing of ISS-N1 improved exon 7 splicing, reverse-transcription PCR (RT-PCR) of SMN2 was performed from exons 6 to 8, and SMNΔ7 and full-length SMN products were quantified by automated electrophoresis (FIG. 1C).
For Δ7SMA mESCs nusinersen experiments, cells were transfected with 20 nM of fully 2′-O-methoxyethyl (MOE)-modified ASO (5′-[…]-3′) (SEQ ID NO: 469) on a phosphorothioate backbone (TriLink), using Lipofectamine 3000 (ThermoFisher Scientific). After 24 hours media was replaced every other day with fresh mESC+2i media. For splicing rescue by risdiplam, mESC media was supplemented with 0.1-1 μM of risdiplam (RG7916, Selleck Chemicals LLC) in DMSO, as indicated. Cells were harvested at the indicated timepoints.
as §1, with “hexamers. Splicing inclusion of SMN2 exon 7 was quantified by automated electrophoresis using Tape Station (Agilent). For unbiased SMN2 splice product analysis by high-throughput sequencing, reverse transcription was performed using a custom oligo-dT primer with a Read 2 Illumina sequencing stub.” for “hexamers.”

[6] = system: SMN2 transcript; assay: SMN2 / exon 7 mRNA transcript levels in Δ7SMA mESCs; type: cell-based, mouse
Experimental: as §2, §3

[7] = system: SMN protein; details: SMA patients; cited from earlier work
[8] = system: SMN protein; details: patient tissues; cited from earlier work
[9] = system: DNA; details: SpCas9 mutation relative to SEQ ID NO: 209; UniProtKB Q99ZW2 entry; cited from earlier work

Row | Compound | increase in SMN2 transcripts relative to untreated cells [1] [fold] | SMN protein levels, increase compared to Δ7SMA mESCs [2] [fold] | increase in SMN protein levels relative to untreated [3] [fold] | MUNE relative to heterozygotes [4] [%] | exon 7 splicing [5] [%] | effect on SMN2 transcript levels [6] | increase of SMN protein levels in patient tissues [7] [fold] | increase of SMN protein levels [8] [fold] | Function/Characteristic (as reported) [9]
1 | Cc1cn2nc(-c3cc(=O)n4cc(N5CCNC6(CC6)C5)ccc4n3)cc(C)c2n1 [risdiplam] | 1.6 | 9.5 | 9.1 | 75 | 89±4.3 | interfered with the endogenous regulation of SMN transcript levels | ~2 | ~2 | –
2 | H840A: SpCas9 mutation relative to SEQ ID NO: 209 | – | – | – | – | – | – | – | – | Nickase mutant which cleaves the non-
